ChEMBL document CHEMBL1201862, “PubChem BioAssay data set” (2004)
Activity calls are given as the source filed them.

Legend:
[1] = system: HEK293; test: SAR Analysis of small molecule inhibitors of T-cell specific antigen receptor-induced NF-kB activation in a HEK-293T cell line using a luminescence assay - Set 2. [Related pubchem assays (depositor defined):AID435003, AID435012, AID489026]; assay type: functional, cell-based; conditions: Homo sapiens
[2] = control 3'UTR Renilla luciferase suppression, dose response, counter-screen for Shn3 inhibitor project, cell-based, Clone20-Shn3RL, cherry-picked (AID 624133); assay type: functional
[3] = system: Jurkat; test: SAR Analysis of small molecule inhibitors of T-cell specific antigen receptor-induced NF-kB activation in a Jurkat cell line using a luminescence assay - Set 2. [Related pubchem assays (depositor defined):AID435003, AID435012, AID465]; assay type: functional, cell-based; conditions: Homo sapiens
[4] = system: BJ; test: cytotoxicity toward Ras-transformed BJeLR fibroblasts, dose response, cell-based, alamar blue fluorescence, cherrypicked samples (AID 2631); assay type: functional; conditions: Homo sapiens;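 further: confirmatory dose-response assay in RAS-dependent BJ fibroblasts engineered with TERT, LT and ST, with cytotoxicity read by fluorescence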
[5] = cytotoxicity toward DRD oncogenic fibroblasts, dose response, cell-based, non-viral oncogenic, luminescence (AID 1934); assay type: functional; conditions: Homo sapiens

SMILES: CCCCC(=O)NC(c1ccc(N(C)C)cc1)c1ccc2cccnc2c1O (stereo not given)
- IC50 [1]: 2230 nM (active)
- AC50 [2]: > 70000 nM (inactive)
- IC50 [3]: 1700 nM (active)
- EC50 [4]: 465 nM (active)
- EC50 [5]: 2510 nM (active)
